Tests used:
[1] = system: LLC tumor; assay: LLC tumor growth under Doxorubicin, plasma DNA of chemotherapy-treated mice and DNase I (Example 14); type: in vivo, C57B1 mice
Description: Blood plasma DNA of tumor-bearing mice was received according to technique described above. Highly metastatic and low metastatic stains of mice' Luice lung carcinoma and Erlich carcinoma were used. Cells were cultivated in RPMI-1640 media with adding of 10% embryonic calf serum, 1% penicillin—streptomycin in 5% carbon dioxide atmosphere. For tumor induction in mice, cells were cultivated until the monolayer, than were detached with trypsin-EDTA solution. Cells were washed trice by centrifuging in phosphate buffer and were resuspensed until their concentration have become 0.5×10^7/ml. Viability was defined by inclusion of methylene blue in hemocytometer. Suspensions that contained 95% of viable cells were used for administration to animals.
Mice of C57B1 line and white not thoroughbred mice from “Rappolovo” animal house were used. Weight of animals was 24-26 grams. Animals were contained in cages, for 6-7 mice per one cage on a standard diet without water restriction. LLC cells in dose of 5×10^5 in 100 mkl of phosphate buffer were injected in soft tissues of thigh. Erlich tumor was subcutaneously replanted on the right side by injection of 0.2 ml 10% cells' suspension in isotonic sodium chloride solution.

[2] = system: Erlich carcinoma; assay: Combined use of DNase and Doxorubicin, Erlich tumor growth (Example 3); type: in vivo, mice; details: Doxorubicin 2 mg/kg intravenously once a day and/or DNase 0.5 mg/kg intraperitoneally four times a day, day 3 to 7; 7th day after transplantation
Experimental: Bovine pancreatic DNase I (Fermentas) and human recombinant DNase […]) were used. DNase I solution for injections were prepared by dissolving of DNase matrix solution in sterile phosphate buffer directly before administration. […] Blood plasma DNA of tumor-bearing mice was received according to technique described above. Highly metastatic and low metastatic stains of mice' Luice lung carcinoma and Erlich carcinoma were used. […] For tumor induction in mice, cells were cultivated until the monolayer, than were detached with trypsin-EDTA solution. Cells were washed trice by centrifuging in phosphate buffer and were resuspensed until their concentration have become 0.5×10^7/ml. Viability was defined by inclusion of methylene blue in hemocytometer. […] Mice of C57B1 line and white not thoroughbred mice from “Rappolovo” animal house were used. Weight of animals was 24-26 grams. Animals were contained in cages, for 6-7 mice per one cage on a standard diet without water restriction. LLC cells in dose of 5×10^5 in 100 mkl of phosphate buffer were injected in soft tissues of thigh. […] Group 1-10 mice transplanted with Erlich carcinoma (control). Group 2-10 mice replanted with Erlich carcinoma. […] Group 3-10 mice replanted with Erlich carcinoma. […] Group 4-10 mice replanted with Erlich carcinoma. […] Results of experiments were estimated according to tumor's growth inhibition (TGI) that were expressed in percents to control data received at last day of DNase injection with standard formula using.

[3] = system: P-glycoprotein; assay: P-glycoprotein expression in Erlich carcinoma, immunohistochemical staining (Example 13); type: in vivo, mice; details: 5 day therapy from 3rd day: Doxorubicin 2 mg/kg intravenously daily, DNase I 0.5 mg/kg four times a day; tissue on 8th day
Experimental: Mice were subjected to course of 5 day therapy with Doxorubicin (2 mg/kg intravenously daily) or Doxorubicin+DNase I (0.5 mg/kg four times a day during 5 days)
Tissue preparations were executed on the 8th day of tumor's transplantation.

[4] = Toxic effect of human DNase I injection on animals; type: in vivo; details: single and multiple injection of up to 2.5 mg/kg
[5] = Influence of DNase I therapy on old rats' life time (Example 19); type: in vivo; details: 24 month old rats, 500 mg/kg intravenously 2 times a week during 2 months
Experimental: White not thoroughbred 24 month old rats were used in experiment. In the study group (10 animals) rats starting from the age of 24 months were subjected to intravenous administration of polysialated human DNase I at […] (equivalent dose of non-modified enzyme) 2 times a week during 2 months. Control group of animals got the administration of placebo. Average life time of rats from control group was 27.8 months. Average life time of rats from experimental group was 30.1 months.

O=P1(N(CCCl)CCCl)NCCCO1 (centres unmarked) [Cyclophosphamide]
tumor inhibition at day 8 ([1]; mouse, in vivo): 30%

COc1cccc2c1C(=O)c1c(O)c3c(c(O)c1C2=O)C[C@@](O)(C(=O)CO)C[C@@H]3O[C@H]1C[C@H](N)[C@H](O)[C@H](C)O1 [Doxorubicin]
Tumor's size ([1]; 8th day after transplantation, Doxorubicin 2 mg/kg i.v. daily day 3-8, DNA 0.05 mkg i.v. day 1 and 3 of treatment, DNase I 0.5 mg/kg i.p. 4 times a day, first and second days): 67 +/− 7 | tumor inhibition at day 8 ([1]; Doxorubicin 2 mg/kg daily for 5 days from day 3, Cyclophosphamide 15 mg/kg intraperitoneally once on 3rd day): 50% | T% (tumor's growth inhibition) [2]: 42% | Tumor's volume [2]: 57 +/− 10 | P-glycoprotein expression in tumor tissue [3]: Multifocal expression

B1: human DNase I: human recombinant DNase I (Dornase; Gentech) (protein, UniProt P24855 23-282, looked up)
Deoxyribonuclease-1: LKIAAFNIQTFGETKMSNATLVSYIVQILSRYDIALVQEVRDSHLTAVGKLLDNLNQDAPDTYHYVVSEPLGRNSYKERYLFVYRPDQVSAVDSYYYDDGCEPCGNDTFNREPAIVRFFSRFTEVREFAIVPLHAAPGDAVAEIDALYDVYLDVQEKWGLEDVMLMGDFNAGCSYVRPSQWSSIRLWTSPTFQWLIPDSADTTATPTHCAYDRIVVAGMLLRGAVVPDSALPFNFQAAYGLSDQLAQAISDHYPVEVMLK
Toxic effect on animals [4]: no toxic effect

B2: polysialated human DNase I: polysialated human DNase I, dose as equivalent of non-modified enzyme (protein, UniProt P24855 23-282, looked up)
Deoxyribonuclease-1: LKIAAFNIQTFGETKMSNATLVSYIVQILSRYDIALVQEVRDSHLTAVGKLLDNLNQDAPDTYHYVVSEPLGRNSYKERYLFVYRPDQVSAVDSYYYDDGCEPCGNDTFNREPAIVRFFSRFTEVREFAIVPLHAAPGDAVAEIDALYDVYLDVQEKWGLEDVMLMGDFNAGCSYVRPSQWSSIRLWTSPTFQWLIPDSADTTATPTHCAYDRIVVAGMLLRGAVVPDSALPFNFQAAYGLSDQLAQAISDHYPVEVMLK
modifications: polysialylated
notes: polysialated human DNase I, dose as equivalent of non-modified enzyme
Average life time [5]: 30.1 months

— patent publication US20080004561A1, “Method for Treating Oncological, Virulent and Somatic Diseases, Method for Controlling Treatment Efficiency, Pharmaceutical Agents and Composition for Carrying Out Said Treatment” (priority 2005, published 2008)
